The record followed here is US6630125B2, “18F-labeled choline analogs” (priority 2000, dated 2003).

Like-named read-outs stand apart in the source and are kept apart here.

For data set [1], the system named is PC-3 human prostate cancer cells. Nature of the data set: Accumulation of radiotracers by cultured PC-3 cells. The class given is cell-based. Particulars: for Uptake by PC-3 cancer cells, HC-3: 5 mM hemicholinium-3; for accumulation by cultured PC-3 cells compared with other tracers: control conditions; for Uptake by PC-3 cancer cells, Control: 2 hr incubation. As for the experimental part: The incubation media utilized for the experiments differed according to the cancer cell type (Table 1). On the day of the study, the medium was refreshed using a volume of 1 ml in each well. Cells were incubated in control conditions or with the addition of metabolic and growth factor receptor inhibitors to test the sensitivity of uptake of the radiotracers to specific inhibitions. […] Following a 30-min incubation period, the radiotracers (e.g., FDG or FCH) were added (˜2 µCi/well) and the cells were incubated for 2 hr. The cells were washed three times with phosphate buffered saline solution, released from the plates by briefly incubating with 0.05% trypsin in DMEM, transferred to test tubes, and counted for F-18 radioactivity in a gamma counter. The amount of radioactivity in the cells was normalized by the dose administered to each well.
The present work studies the structure-activity relationships for purposes of optimization of the molecule for imaging prostate cancer. […] A number of structural analogs of choline were labeled as N-[^18F]fluoromethyl derivatives via the intermediate [^18F]fluorobromomethane (see Table 3). Uptake of the radiotracers was assessed in cultured PC-3 human prostate cancer cells and in a murine PC-3 xenograft model.

In data set [2] the test system is mice with PC-3 xenografts. The conditions noted are these: for tumor uptake: PC-3 xenograft. On the procedure:
Body weight and tumor volume were measured weekly and tumor volume (mm3) was calculated using the formula S2×L/2, where S and L represent the small and large diameters of the tumor, respectively.
A prescribed duration of time was allowed before procurement of heart, liver, lung, blood, kidney, bone (femur), brain (whole), prostate gland, tumor, bladder, and skeletal muscle. The tissues were weighed, and counted for ^18F in a gamma counter, then dissolved in Solvable (Dupont, Boston Mass.) and counted for ^14C in a liquid scintillation counter. For the bladder, the percentage of the injected dose in the urine was determined. For all other tissues, radiotracer uptake was calculated as: […]

The test system of data set [3] is patients with prostate cancer. Nature of the data set: PET imaging in patients with prostate cancer. Particulars: Example 11 patient, metastatic prostate cancer. On the procedure:
The distribution of FCH in PET imaging studies was evaluated in 14 patients with prostate cancer, 14 patients with breast cancer, and 5 patients with brain tumors. Imaging was performed using the Advance PET scanner (GE Medical Systems, Milwaukee, Wis.). […] In prostate cancer patients, a transmission scan of the pelvic region was obtained before administration of radiotracer. FCH (2.5-5 mCi) was administered intravenously, and dynamic imaging of the pelvis region was commenced for 20-30 min. During image reconstruction, the emission data in the pelvic region were corrected for photon attenuation using the transmission scan. Immediately following the dynamic scan, a whole-body emission scan was performed without transmission scanning for attenuation correction. The images were reconstructed using an Ordered Subset Expectation Maximum (OS-EM) algorithm. Regions-of-interest were drawn manually on the attenuation corrected images for evaluation of FCH kinetics in tissues. Standardized uptake values of FCH uptake in tissues were calculated using the attenuation-corrected images according to the equation: [formula]
Patient 2: Transmission and FCH emission scans of a person with hormone naive clinical stage T2 prostate cancer were commenced over the lower pelvis.
The same patient was scanned with FDG within the same week (FIG. 8).
Patient 4: A person with a history of clinical stage T3b prostate cancer treated by radical retropubic prostatectomy was diagnosed with metastatic disease by bone scan. FCH-PET imaging was performed before and after initiating androgen deprivation therapy. In the first study, whole-body emission scanning was started 5 min after injection, beginning at the pelvic region in order to image the pelvis and prostatic bed before arrival of urinary radioactivity. […] The patient was rescanned 2 weeks after initiating androgen deprivation therapy.
Patient 5: A person was initially diagnosed five years prior with locally advanced clinical stage T3NOMO prostate cancer and underwent radical prostatectomy followed by external beam radiation to the prostate bed. […] The patient was then treated with Zolex and Casodex.

For data set [4], the target named is T1, yeast choline kinase (Saccharomyces cerevisiae, UniProt P20485).
T1 sequence (P20485 1-582): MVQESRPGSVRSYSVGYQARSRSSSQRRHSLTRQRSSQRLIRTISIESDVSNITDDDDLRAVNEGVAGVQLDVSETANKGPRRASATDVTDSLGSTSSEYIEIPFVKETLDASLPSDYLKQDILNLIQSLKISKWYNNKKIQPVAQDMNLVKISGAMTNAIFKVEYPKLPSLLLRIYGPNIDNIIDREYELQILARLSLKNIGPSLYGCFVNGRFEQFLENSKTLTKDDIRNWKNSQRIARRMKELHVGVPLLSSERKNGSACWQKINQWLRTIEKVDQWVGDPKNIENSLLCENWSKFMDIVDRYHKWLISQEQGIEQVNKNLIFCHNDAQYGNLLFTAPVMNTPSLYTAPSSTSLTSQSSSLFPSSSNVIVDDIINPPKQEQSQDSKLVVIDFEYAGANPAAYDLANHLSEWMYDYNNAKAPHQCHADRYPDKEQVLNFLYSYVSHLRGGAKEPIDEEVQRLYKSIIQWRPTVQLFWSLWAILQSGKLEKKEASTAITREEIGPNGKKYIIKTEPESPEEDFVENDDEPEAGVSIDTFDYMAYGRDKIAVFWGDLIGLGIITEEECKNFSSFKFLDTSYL
In words: In vitro phosphorylation by yeast choline kinase. In kind it is biochemical. Particulars: 1 μM choline; for In vitro phosphorylation: 25 mU/ml yeast choline kinase, 23° C., 10 min, n = 5. As for the experimental part: The test tube was gently agitated throughout the incubation period. The reaction was stopped by placing the tube in a boiling water bath for 2 min. To serve as controls, some samples were placed directly in the boiling water bath after addition of all substrates. […] The percentage of radioactivity converted to the phosphorylated form was calculated.

[5] abbreviates: inhibitor HC-3 (hemicholinium-3, 5 mM).

`C[N+]1(C[18F])CCCC(O)C1` (stereo not shown) [cyclic N—OH]: in data set [1] (inhibitor none), the “Uptake by PC-3 cells” value is 0.077 ± 0.011 % dose/2 hr/10^5 cells plated.

Consider `[2H]C([2H])(O)C[N+](C)(CC)C[18F]` (stereo not shown) [FEDC], for which the “Uptake by PC-3 cells” value in data set [1] (inhibitor none) is given as 0.720 ± 0.065 % dose/2 hr/10^5 cells plated.

For `CCC[N+](C)(C[18F])CCCO` (stereo not shown) [Propyl-prop.], the “Uptake by PC-3 cells” value in data set [1] (inhibitor none) was 0.234 ± 0.050 % dose/2 hr/10^5 cells plated.

In the case of `CCC(C)[N+](C)(C[18F])CCO` (stereo not shown) [Sec-butyl], in data set [1] (inhibitor none), the “Uptake by PC-3 cells” value is listed as 0.28 ± 0.01 % dose/2 hr/10^5 cells plated.

Turning to `CC(CO)[N+](C)(C)C[18F]` (stereo not shown) [Tracer 2-methyl], the “Uptake by PC-3 cells” value in data set [1] (inhibitor none) was 0.182 ± 0.016 % dose/2 hr/10^5 cells plated.

Take `[2H]C([2H])(O)CC[N+](C)(C)C[18F]` [propanol - D]: the “Uptake by PC-3 cells” value in data set [1] is 0.763 ± 0.065 % dose/2 hr/10^5 cells plated.

As for `[2H]C([2H])(O)C[N+](C)(C)C[18F]` [FDC], the “Uptake by PC-3 cells” value in data set [1] (inhibitor none) was 2.410 ± 0.144 % dose/2 hr/10^5 cells plated. In data set [2] (60 min after injection), the “Tumor:muscle ratio” value was “highest” and the “tumor:blood ratio” value is listed as “highest”. Also, in data set [3], the “SUV of osseous lesion (pubic ramus)” value is given as 11.7.

Consider `C[N+](C)(C[18F])CCCCO` [Butanol], for which the “Uptake by PC-3 cells” value in data set [1] is reported as 0.140 ± 0.042 % dose/2 hr/10^5 cells plated.

With `CCC[N+](C)(C[18F])CCO` (stereo not shown) [FPrC], the “uptake in cultured PC-3 cells” value in data set [1] is on record as ~2 %/hr/100,000 cells plated. In addition, the “Uptake by PC-3 cells” value is reported as 0.062 ± 0.001 % dose/2 hr/10^5 cells plated in data set [1] (setting [5]) and 1.877 ± 0.115 % dose/2 hr/10^5 cells plated in data set [1] (inhibitor none). The same compound registered a tumor uptake in data set [2] of about 0.07 % dose kg/g.

For the compound `CCCCC[N+](C)(C[18F])CCO` (stereo not shown) [Pentyl], the “Uptake by PC-3 cells” value in data set [1] (inhibitor none) was 0.073 ± 0.007 % dose/2 hr/10^5 cells plated.

As to `C[N+](C[18F])(CCO)CCO` [Diethanol], the “Uptake by PC-3 cells” value in data set [1] (inhibitor none) is listed as 0.462 ± 0.083 % dose/2 hr/10^5 cells plated.

In the case of `OCC[N+]1(C[18F])CCCC1` [cyclic 5N], in data set [1] (inhibitor none), the “Uptake by PC-3 cells” value is 0.355 ± 0.028 % dose/2 hr/10^5 cells plated.

Take `CC(C)C[N+](C)(C[18F])CCO` (stereo not shown) [Isobutyl]: in data set [1] (inhibitor none), the “Uptake by PC-3 cells” value is reported as 2.74 ± 0.09 % dose/2 hr/10^5 cells plated.

With `C[N+](C)(CCO)CCC[18F]` [FPC, [^18F]fluoropropylcholine], in data set [4], the “phosphorylation rate, less than for FCH” value is given as about 60% and the In vitro phosphorylation was found to be 22.1 ± 3.1 %. In data set [1], the “Uptake by PC-3 cancer cells, HC-3” value is recorded as 0.76 ± 0.20 % dose/2 hr/105 cells plated; the “accumulation by cultured PC-3 cells compared with other tracers” value was “not significantly different from that of FCH”; the “Uptake by PC-3 cancer cells, Control” value is given as 1.29 ± 0.28 % dose/2 hr/105 cells plated. In data set [1] (HC-3 versus control), the “decrease in uptake by PC-3 cells with hemicholinium-3 (HC-3)” value is reported as 41%.

For `CC[N+](C)(C[18F])CCCO` (stereo not shown) [Ethyl-Prop.], the “Uptake by PC-3 cells” value in data set [1] (inhibitor none) is reported as 0.285 ± 0.023 % dose/2 hr/10^5 cells plated.

With `CC[N+](C)(C[18F])CCO` (stereo not shown) [FEtC, [^18F]fluoromethylethylcholine], in data set [4], the “phosphorylation rate compared with CH” value is recorded as “equivalent to CH” and the In vitro phosphorylation was found to be 55.2 ± 6.6%. In data set [1], the “uptake in cultured PC-3 cells” value is recorded as ~2 %/hr/100,000 cells plated; the “Uptake by PC-3 cancer cells, HC-3” value was 0.12 ± 0.02 % dose/2 hr/105 cells plated; the “accumulation by cultured PC-3 cells compared with other tracers” value is recorded as “higher than HARA-1 (p<0.05), but lower than FCH”; the “Uptake by PC-3 cancer cells, Control” value was 0.74 ± 0.04 % dose/2 hr/105 cells plated. Moreover, the “Uptake by PC-3 cells” value in data set [1] (setting [5]) was 0.122 ± 0.016 % dose/2 hr/10^5 cells plated. Further, in data set [1] (inhibitor none), the “Uptake by PC-3 cells” value is 0.741 ± 0.041 % dose/2 hr/10^5 cells plated. The tumor uptake in data set [2] is recorded as about 0.07 % dose kg/g.

Take `C[N+](C)(C[18F])CCCO` [FHC, [^18F]fluorohomocholine]: the “uptake in cultured PC-3 cells” value in data set [1] is ~2 %/hr/100,000 cells plated. Also, the “Uptake by PC-3 cells” value in data set [1] (inhibitor none) is given as 1.635 ± 0.306 % dose/2 hr/10^5 cells plated. In data set [2], the tumor uptake is about 0.07 % dose kg/g.

In the case of `C=CC[N+](C)(C[18F])CCO` (stereo not shown) [Allyl], the “Uptake by PC-3 cells” value in data set [1] (setting [5]) is listed as 0.11 ± 0.01 % dose/2 hr/10^5 cells plated; in data set [1] (inhibitor none) it was 4.45 ± 0.46 % dose/2 hr/10^5 cells plated.

As for `[2H]C([2H])(O)C[N+](C)(C[18F])CCC` (stereo not shown) [propyl - D], the “Uptake by PC-3 cells” value in data set [1] (inhibitor none) was 1.864 ± 0.307 % dose/2 hr/10^5 cells plated.

For `C#CC[N+](C)(C[18F])CCO` (stereo not shown) [FPP], the “Uptake by PC-3 cells” value in data set [1] (inhibitor none) is given as 7.90 ± 0.53 % dose/2 hr/10^5 cells plated.

Consider `OCC[N+]1(C[18F])CCOCC1` [cyclic 6NO], for which, in data set [1] (inhibitor none), the “Uptake by PC-3 cells” value is reported as 0.399 ± 0.014 % dose/2 hr/10^5 cells plated.

Take `C[N+](C[18F])(CCO)Cc1ccccc1` (stereo not shown) [benzyl]: the “Uptake by PC-3 cells” value in data set [1] (inhibitor none) is given as 0.202 ± 0.009 % dose/2 hr/10^5 cells plated.

In the case of `OCC[N+]1(C[18F])CCCCC1` [cyclic 6N], the “Uptake by PC-3 cells” value in data set [1] (inhibitor none) is given as 0.144 ± 0.014 % dose/2 hr/10^5 cells plated.

For the compound `CC(O)C[N+](C)(C)C[18F]` (stereo not shown) [Tracer 1-methyl], the “Uptake by PC-3 cells” value in data set [1] (inhibitor none) was 0.202 ± 0.021 % dose/2 hr/10^5 cells plated.

As for `CCCC[N+](C)(C[18F])CCO` (stereo not shown) [Butyl], the “Uptake by PC-3 cells” value in data set [1] (inhibitor none) is 0.153 ± 0.021 % dose/2 hr/10^5 cells plated.

`CC[N+](CC)(C[18F])CCO` [Diethyl]: in data set [1] (inhibitor none), the “Uptake by PC-3 cells” value is listed as 0.503 ± 0.091 % dose/2 hr/10^5 cells plated.

For the compound `OCC[N+](C[18F])(CCO)CCO` [triethanol], the “Uptake by PC-3 cells” value in data set [1] (inhibitor none) is recorded as 0.170 ± 0.045 % dose/2 hr/10^5 cells plated.
